Results as given in PubChem BioAssay (NCI).
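Step 1: Grow cells in 96-well plates. Step 2: Expose to compound for 48 hours at 5 concentrations. Step 3: Interpolate endpoints linearly; if unreached, use highest concentration. GI50 = concentration required for 50% inhibition of growth. TGI is the concentration that stops growth completely.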

Columns and labels:
Test in all cases: NCI tumour cell line growth inhibition, 48 h
OVCAR-8 ovarian = test system: OVCAR-8 ovarian
COLO 205 colon = test system: COLO 205 colon
A549 NSCLC = test system: A549 NSCLC
BT-549 breast = test system: BT-549 breast
SR leukemia = test system: SR leukemia
NCI-H226 lung = test system: NCI-H226 lung
NCI/ADR-RES ovarian = test system: NCI/ADR-RES ovarian
SF-268 CNS = test system: SF-268 CNS
UACC-62 melanoma = test system: UACC-62 melanoma
KM12 colon = test system: KM12 colon
HT29 colon = test system: HT29 colon
UACC-257 melanoma = test system: UACC-257 melanoma
UO-31 renal = test system: UO-31 renal
HCT-116 colon = test system: HCT-116 colon
OVCAR-4 ovarian = test system: OVCAR-4 ovarian
HCT-15 colon = test system: HCT-15 colon
SK-MEL-28 melanoma = test system: SK-MEL-28 melanoma
ACHN renal = test system: ACHN renal
SF-295 CNS = test system: SF-295 CNS
SNB-19 CNS = test system: SNB-19 CNS
HL-60(TB) leukemia = test system: HL-60(TB) leukemia
A498 renal = test system: A498 renal
NCI-H522 lung = test system: NCI-H522 lung
SNB-75 CNS = test system: SNB-75 CNS
786-0 renal = test system: 786-0 renal
LOX IMVI melanoma = test system: LOX IMVI melanoma
T-47D breast = test system: T-47D breast
HCC-2998 colon = test system: HCC-2998 colon
SK-MEL-5 melanoma = test system: SK-MEL-5 melanoma

`CC(=O)c1cc(O)c2ccccc2c1O` showed a GI50 (OVCAR-8 ovarian) of 20.2 µM, a TGI (OVCAR-8 ovarian) of 38.6 µM and a GI50 (COLO 205 colon) of 19 µM. It also gave a TGI (COLO 205 colon) of 34.4 µM, a GI50 (A549 NSCLC) of 37.1 µM and a TGI (A549 NSCLC) greater than 100 µM. For the same compound, the GI50 (BT-549 breast) was 20.1 µM, the TGI (BT-549 breast) was 37.2 µM and the GI50 (SR leukemia) was 28 µM. It also gave a TGI (SR leukemia) greater than 100 µM, a GI50 (NCI-H226 lung) of 17.5 µM and a TGI (NCI-H226 lung) of 33.2 µM. The GI50 (NCI/ADR-RES ovarian) was 24.5 µM, the TGI (NCI/ADR-RES ovarian) was 67.5 µM and the GI50 (SF-268 CNS) was 18.8 µM. For the same compound, the TGI (SF-268 CNS) was 33.4 µM, the GI50 (UACC-62 melanoma) was 16.2 µM and the TGI (UACC-62 melanoma) was 32.7 µM. The GI50 (KM12 colon) was 18.8 µM, the TGI (KM12 colon) was 35.1 µM and the GI50 (HT29 colon) was 15.5 µM. The TGI (HT29 colon) was 37 µM, the GI50 (UACC-257 melanoma) was 17.7 µM and the TGI (UACC-257 melanoma) was 34.1 µM. For the same compound, the GI50 (UO-31 renal) was 12.1 µM, the TGI (UO-31 renal) was 25.5 µM and the GI50 (HCT-116 colon) was 17.6 µM. The TGI (HCT-116 colon) was 34.5 µM, the GI50 (OVCAR-4 ovarian) was 14.2 µM and the TGI (OVCAR-4 ovarian) was 41.6 µM. The GI50 (HCT-15 colon) was 20.5 µM, the TGI (HCT-15 colon) was 44.1 µM and the GI50 (SK-MEL-28 melanoma) was 22.9 µM. For the same compound, the TGI (SK-MEL-28 melanoma) was 44.5 µM, the GI50 (ACHN renal) was 16.9 µM and the TGI (ACHN renal) was 32.5 µM. It also gave a GI50 (SF-295 CNS) of 18.5 µM, a TGI (SF-295 CNS) of 38.8 µM and a GI50 (SNB-19 CNS) of 46 µM. It also gave a TGI (SNB-19 CNS) greater than 100 µM, a GI50 (HL-60(TB) leukemia) of 25.5 µM and a TGI (HL-60(TB) leukemia) of 62.5 µM. For the same compound, the GI50 (A498 renal) was 89.5 µM, the TGI (A498 renal) was greater than 100 µM and the GI50 (NCI-H522 lung) was 14.5 µM. It also gave a TGI (NCI-H522 lung) of 35.4 µM, a GI50 (SNB-75 CNS) of 15.7 µM and a TGI (SNB-75 CNS) of 32.8 µM. The GI50 (786-0 renal) was 20 µM, the TGI (786-0 renal) was 35.2 µM and the GI50 (LOX IMVI melanoma) was 14.8 µM. It also gave a TGI (LOX IMVI melanoma) of 39.3 µM, a GI50 (T-47D breast) of 17.4 µM and a TGI (T-47D breast) of 41.4 µM. The GI50 (HCC-2998 colon) was 19.9 µM, the TGI (HCC-2998 colon) was 37.1 µM and the GI50 (SK-MEL-5 melanoma) was 16.3 µM. The TGI (SK-MEL-5 melanoma) was 30.2 µM.
